According to US8703970B2, “Compounds having photochemically removable protecting groups based on an electrocyclic reaction between a chromophore attached via an anilide group to a benzothiophene ring” (Marquette University, priority 2012, dated 2014):
Like-named read-outs stand apart in the source and are kept apart here.

Assays:
[1] = Absorption spectra; type: physicochemical; conditions: for ε at absorption maximum: 385 nm; for ε at absorption maximum / absorption maximum: aqueous dioxane or acetonitrile
Protocol: (§1) For the ester ε=5600 M^−1 cm^−1, while the acid has ε=4200 M^−1 cm^−1. For preparative photolyses Pyrex-filtered light from a Hanovia medium pressure mercury lamp was used. A sunlamp was also effective at photolysing all of the compounds in the study. Quantum yields were determined at 390 nm using a monochromator for wavelength selection utilizing a high pressure mercury lamp as the light source.
Photoproduct 26 was identified by ^1H NMR spectroscopy and elemental analysis. […] Regioisomer 28 would have shown only four vicinal couplings in the COSY spectrum. […] The compound was obtainable only as a powder, despite repeated attempts to obtain crystals for structure determination using X-ray diffraction.

[2] = Product quantum yield determination for photochemical leaving group expulsion at 390 nm; type: physicochemical; conditions: for product quantum yield Φ: N2 saturated 19% H2O in dioxane containing 100 mM buffer (1.8×10^−3 M for 8; similar conditions for 7), products quantified by NMR; for quantum yield Φ for formation of 27: 2.0×10^−3 M acid in N2 saturated 75% aq buffer in CH3CN
Protocol: as §1
A semi-micro optical bench was used for quantum yield determinations, similar to the apparatus described by Zimmerman.^32 Light from a 200 W high-pressure mercury lamp was passed through an Oriel monochromator, which was set to 390 nm wavelengths. The light was collimated through a lens. A fraction of the light was diverted 90° by a beam splitter to a 10×3.6 cm side quartz cylindrical cell containing an actinometer. The photolysate was contained in a 10×1.8 cm quartz cylindrical cell of 25 mL volume. The concentrations of the reactants were 0.0018-0.0030 M. All quantum yields reported herein were the average of two or more independent runs. Behind the photolysate was mounted a quartz cylindrical cell containing 25 mL of actinometer. Light output was monitored by ferrioxalate actinometery using the splitting ratio technique.
For 7 (LG^−=Cl^−), 8 (LG^−=Cl^−), and 10 (LG^−=Cl^−) 50 mL of water was added to the photolysate, and the diluted photolysate was extracted four times with 30 mL of CH2Cl2. The combined extracts were washed twice with 30 mL water, brine, and concentrated in vacuo. The residue was dissolved in d6-DMSO. DMF was added as a standard for NMR analyses (vide infra). However, for 7 (LG^−=Cl^−) the NMR solvent was CDCl3 and the NMR standard was DMSO.
For 9 (LG^−=Cl^−, PhS^−, HS^−, PhCH2S^−) the photolysate was adjusted to pH 2 by addition of 3 N HCl. The resultant precipitate was collected by suction filtration and washed with 50 mL water. The precipitate was transferred to a flask, and any untransferred precipitate was dissolved in DMSO and combined with the transferred precipitate. The DMSO was evaporated to dryness under vacuum and DMSO-d6 was added along with DMF as a standard for NMR analysis.
Products were analyzed by ^1H NMR spectroscopy using DMF or DMSO as the internal standard and conversions were 12-16%. At the concentrations used most of the incident light would have been absorbed near the front face of the photolysis cell, raising the concern that the photoproducts formed during the photolyses could competitively absorb the incident light, reducing the light absorbed by the reactants. This internal filter effect would depress the observed Φ values below the actual values. In the case of 8 (LG^−=Cl^−) the Φ was thus redetermined at an 18-fold lower concentration of 1.0×10^−4 M of reactant and found to be within experimental error of the value obtained at higher concentration at 14% conversions for duplicate runs. Due to the very low concentrations of the photoproduct 26 formed, it had to be quantified by absorption spectroscopy of the exposed photolysates without any workup. The product absorption at 432 nm was deconvoluted from the tailing absorption of reactant using Origin 8.6 software (OriginLab). After deconvolution, concentrations were obtained from a calibration curve constructed from known mixtures of reactant and product.

[3] = Preparative photolysis with Pyrex-filtered Hanovia medium pressure mercury lamp, products quantified by NMR; type: physicochemical; conditions: for chemical yield of leaving group expulsion / photoproduct formation in preparative photolysis: N2 saturated aqueous 100 mM phosphate buffer (pH 7) in CH3CN, NMR integration
Protocol: as §1
Similarly, preparative photolysis of […] acid 9 (LG^−=Cl^−) in N2 saturated 75% H2O in CH3CN containing 100 mM phosphate buffer (pH 7) gave the single regioisomeric photoproduct 27 in 98% yield by NMR integration, as above for 8 (LG^−=Cl^−). The regiospecificity was again established by 600 MHz ^1H NMR COSY. […] Photolysis of acid 9 (LG^−=PhS^−, HS^−, PhCH2S^−) under the same conditions as 8 (LG^−=Cl^−) also gave photoproduct 27 in 98-100% yields upon expulsion of these thiolate leaving groups. For acid 9 (LG^−=PhCH2S^−) the released benzyl thiol was quantified in photolyses of 4.5×10^−3 M solutions of 35% D2O in CD3CN containing phosphate buffer (as above) contained in NMR tubes. Yields were 96% thiol and 99% of 27 at 100% conversion of reactant by ^1H NMR spectroscopy. Very similar results were found when DMSO-d6 was the photolysis solvent.
The regiospecific formation of 26 or 27 in the preparative photolyses of ester 8 or acids 9 requires the presence of the ester and carboxylic acid substituents attached to the C-6 position of the benzothiophene ring system of the reactants. In contrast, photolyses of the unsubstituted benzothiophene ring system 7 (LG^−=Cl^−) in 16% water containing 100 mM phosphate buffer in CH3CN gave both regioisomeric photoproducts 30 and 31 as a 42:58 mixture, respectively, in 100% yield according to 400 MHz ^1H NMR spectroscopy (Scheme 6).
To determine whether a “heavy atom effect” promoted intersystem crossing of the singlet excited state to the triplet excited state, work focused upon the C-7 bromide of thioxanthone ester 10 (LG^−=Cl^−). Preparative photolysis of ester 10 in N2 saturated 19% H2O in CH3CN containing 100 mM phosphate buffer (pH 7), as above for ester 8 (LG^−=Cl^−), exclusively gave regioisomer 32 in 99% yield, and 33 was not observed by ^1H NMR spectroscopy of the photolysate (Scheme 7).
A 0.010 M solution of 8 (LG^−=Cl^−) in N2 saturated 17% H2O in CH3CN containing 100 mM phosphate buffer at pH 7 was irradiated with a 450 W Hanovia medium pressure mercury lamp with a Pyrex filter for 90 min. The photoproduct was isolated by filtration. The photoproduct was washed with H2O and a small amount of CHCl3 and dried under vacuum. The product was a yellow powder, mp >300° C. […] A COSY spectrum in d6-DMSO was obtained (see Supporting Information).
A 0.010 M solution of 13 (LG^−=Cl^−) in N2 saturated 75% H2O in CH3CN containing 100 mM phosphate buffer at pH 7 was irradiated with a 450 W Hanovia medium pressure mercury lamp with Pyrex filter for 90 min. The photolysate was acidified to pH 2 with conc. HCl to precipitate the photoproduct carboxylic acid 27. The photoproduct was obtained by filtration, washing with H2O, and drying under vacuum, as a yellow powder, mp >300° C.
A 0.010 M solution of 7 (LG^−=Cl^−) in N2 saturated 17% H2O in CH3CN containing 100 mM phosphate buffer at pH 7 was irradiated with a 450 W Hanovia medium pressure mercury lamp with a Pyrex filter for 90 min. The photoproduct was isolated by filtration as a mixture of two isomers, 30, 31. The mixture of product isomers was dissolved in hot DMSO. Solid photoproduct isomer 31 was obtained upon cooling of the hot DMSO and filtration. Photoproduct isomer 31 was washed with water and methanol and dried under vacuum to obtain 31 as floppy powder, mp >300° C. Solid photoproduct isomer 30 was obtained upon addition of water to the above DMSO filtrate by filtration, after washing with water and methanol. The photoproduct isomer 30 was crystallized from CHCl3 to give a yellow crystalline solid, mp 271-273° C. […]

[4] = Photolysis with 120 W sunlamp for 72 h; type: physicochemical; conditions: gives exclusively product 26 or 27
Protocol: The photolyses of ester 8 (LG^−=Cl^−) and acids 9 (LG^−=Cl^−, PhS^−, HS^−, PhCH2S) were repeated with a 120 W sunlamp for 72 h under otherwise the same conditions described above for the Hanovia runs.

[5] = Stern-Volmer quenching of the photoreaction by piperylene; type: physicochemical
Source text: In air-saturated solution quantum yields for ester 8 (LG^−=Cl^−) decreased to Φ=0.019. […] Furthermore, quenching by 9.2-37×10^−[…] piperylene as quencher Q gave a slope kqτ=7.03×10^4 M^−1 for a Stern-Volmer plot Φ°/Φ vs. [Q](data not shown). If it is assumed that kq=ca. 10^10 M^−1 s^−1, then τ would be ca. 7 μs.

[6] = cited from earlier work
[7] = 4.5×10^−3 M in 35% D2O in CD3CN containing phosphate buffer, 100% conversion, 1H NMR

Row | product quantum yield Φ ([2]; 390 nm) | chemical yield of leaving group expulsion / photoproduct formation in preparative photolysis [3] | leaving group expulsion with sunlamp [4] | quantum yield Φ for formation of 27 ([2]; 390 nm) | melting point | Molecule | other results
1 | – | – | – | – | – | 6-methylcarboxylate-[1]benzothiopheno[2,3-c]benzo[a]anthracene-4-methyl-4H-7-thia-4-aza-3,12-dione [compound 26] | ε at long wavelength maximum ([1]; 432 nm, aq dioxane containing phosphate buffer): 10300 M⁻¹ cm⁻¹; long wavelength absorption maximum ([1]; aq dioxane containing phosphate buffer): 432 nm
2 | 0.069 | 100% | – | – | – | CN(C(=O)c1sc2ccccc2c1Cl)c1ccc2sc3ccccc3c(=O)c2c1 [7 (LG^−=Cl^−), 3-chloro-benzo[b]thiophene-2-carboxylic acid methyl-(9-oxo-9H-thioxanthen-2-yl)amide] | –
3 | 0.039 | nearly quantitative | essentially quantitatively | – | – | COC(=O)c1ccc2c(Cl)c(C(=O)N(C)c3ccc4sc5ccccc5c(=O)c4c3)sc2c1 [8 (LG^−=Cl^−), 3-chloro-2-[methyl-(9-oxo-9H-thiozanthen-2-yl)-carbamoyl]-benzo[b]thiophene-6-carboxylic acid methyl ester] | quantum yield Φ for photoproduct 26 ([2]; 390 nm, reactant concentration 1.0×10^−4 M, photoproduct quantified by absorption spectroscopy): 0.037; quantum yield Φ ([2]; air-saturated solution): 0.019; quantum yields for reaction (photorelease of leaving group), overall ([2]; depending on LG^− basicity or reactant concentration): 0.037-0.039; ε at absorption maximum [1]: 5600 M⁻¹ cm⁻¹; absorption maximum [1]: 385 nm; Stern-Volmer slope kqτ ([5]; 9.2-37×10^−6 M piperylene as quencher, plot Φ°/Φ vs. [Q]): 70300 M⁻¹; triplet excited state lifetime τ ([5]; assuming kq=ca. 10^10 M^−1 s^−1): ca. 7 μs
4 | – | 98% | essentially quantitatively | 0.034 | 286 to 287 °C | CN(C(=O)c1sc2cc(C(=O)O)ccc2c1Cl)c1ccc2sc3ccccc3c(=O)c2c1 [9 (LG^−=Cl^−), 3-chloro-2-[methyl-(9-oxo-9H-thioxanthen-2-yl)-carbamoyl]-benzo[b]thiophene-6-carboxylic acid] | ε at absorption maximum [1]: 4200 M⁻¹ cm⁻¹; absorption maximum [1]: 385 nm
5 | – | – | essentially quantitatively | 0.0079 | 210 to 212 °C | CN(C(=O)c1sc2cc(C(=O)O)ccc2c1S)c1ccc2sc3ccccc3c(=O)c2c1 [9 (LG^−=HS^−), 3-mercapto-2-[methyl-(9-oxo-9H-thioxanthen-2-yl)-carbamoyl]-benzo[b]thiophene-6-carboxylic acid] | –
6 | – | – | essentially quantitatively | 0.011 | 151 to 152 °C | CN(C(=O)c1sc2cc(C(=O)O)ccc2c1SCc1ccccc1)c1ccc2sc3ccccc3c(=O)c2c1 [9 (LG^−=PhCH2S^−), 3-benzylsulfanyl-2-[methyl-(9-oxo-9H-thioxanthen-2-yl)-carbamoyl]-benzo[b]thiophene-6-carboxylic acid] | yield of 27 [3, 7]: 99%; yield of released benzyl thiol [3, 7]: 96%
7 | – | – | essentially quantitatively | 0.017 | 278 to 279 °C | CN(C(=O)c1sc2cc(C(=O)O)ccc2c1Sc1ccccc1)c1ccc2sc3ccccc3c(=O)c2c1 [9 (LG^−=PhS^−), 2-[methyl-(9-oxo-9H-thioxanthen-2-yl)-carbamoyl]-3-phenylsulfanyl-benzo[b]thiophene-6-carboxylic acid] | –
8 | 0.053 | 99% | – | – | 237 to 239 °C | COC(=O)c1ccc2c(Cl)c(C(=O)N(C)c3ccc4sc5ccc(Br)cc5c(=O)c4c3)sc2c1 [10 (LG^−=Cl^−), 2-[(7-bromo-9-oxo-9H-thioxanthen-2-yl)-methyl-carbamoyl]-3-chloro-benzo[b]thiophene-6-carboxylic acid methyl ester] | quantum yield higher than Φ=0.039 of ester 8 (LG^−=Cl^−) ([2]; bromo ester 10 vs ester 8): 38%
9 | – | – | – | – | – | O=c1c2ccccc2sc2ccccc12 [thioxanthone] | triplet lifetime ([6]; in CH3CN): 6.7 μs; triplet yield ([6]; nonpolar hydrocarbon solvent (cyclohexane)): 0.85; triplet lifetime ([6]; polar protic solvent (methanol)): 13.3 μs; triplet yield ([6]; polar, protic solvent (CH3OH)): 0.56
